Reference: ChEMBL document CHEMBL1157501, “Novel fluorinated acridone derivatives. Part 1: synthesis and evaluation as potential anticancer agents” (Bioorg Med Chem Lett, 2008)

Experiments:
BT-549 = test: Antiproliferative activity against human BT549 cells after 72 hrs by alamar blue assay; type: functional, cell-based; details: BT-549, 72 h
BT-20 = test: Antiproliferative activity against human BT20 cells after 72 hrs by Alamar Blue assay; type: functional, cell-based; details: BT-20, 72 h
SW480 = test: Antiproliferative activity against human SW480 cells after 72 hrs by Alamar Blue assay; type: functional, cell-based; details: SW480, 72 h
Jurkat = test: Antiproliferative activity against human Jurkat cells after 72 hrs by Alamar Blue assay; type: functional, cell-based
MCF7 = test: Growth inhibition of human MCF7 cells at 10 uM relative to control; type: functional
T47D = test: Growth inhibition of human T47D cells at 10 uM relative to control; type: functional
HOP-92 = test: Growth inhibition of human HOP92 cells at 10 uM relative to control; type: functional
A549 = test: Growth inhibition of human A549 cells at 10 uM relative to control; type: functional
HCT-116 = test: Growth inhibition of human HCT116 cells at 10 uM relative to control; type: functional
HT-29 = test: Growth inhibition of human HT29 cells at 10 uM relative to control; type: functional
MOLT-4 = test: Growth inhibition of human MOLT4 cells at 10 uM relative to control; type: functional
[1] = Growth inhibition of human HL60(TB) cells at 10 uM relative to control; type: functional, HL-60(TB); details: HL-60
CAKI-1 = test: Growth inhibition of human CAKI1 cells at 10 uM relative to control; type: functional
786-0 = test: Growth inhibition of human 786-0 cells at 10 uM relative to control; type: functional
UACC-257 = test: Growth inhibition of human UACC257 cells at 10 uM relative to control; type: functional
SK-MEL-28 = test: Growth inhibition of human SK-MEL-28 cells at 10 uM relative to control; type: functional
SF-295 = test: Growth inhibition of human SF295 cells at 10 uM relative to control; type: functional
SNB-75 = test: Growth inhibition of human SNB75 cells at 10 uM relative to control; type: functional
CCRF-CEM = test: Growth inhibition of human CCRF-CEM cells at 10 uM relative to control; type: functional

SMILES	IC50 (BT-549)	IC50 (BT-20)	IC50 (SW480)	IC50 (Jurkat)	inhibition at 10 µM (MCF7)	inhibition at 10 µM (T47D)	inhibition at 10 µM (HOP-92)	inhibition at 10 µM (A549)	inhibition at 10 µM (HCT-116)	inhibition at 10 µM (HT-29)	inhibition at 10 µM (MOLT-4)	inhibition at 10 µM [1]	inhibition at 10 µM (CAKI-1)	inhibition at 10 µM (786-0)	inhibition at 10 µM (UACC-257)	inhibition at 10 µM (SK-MEL-28)	inhibition at 10 µM (SF-295)	inhibition at 10 µM (SNB-75)	inhibition at 10 µM (CCRF-CEM)
Cc1c2c(nc3ccc(Cl)cc13)CC(C(F)(F)F)CC2=O (configuration not stated)	12.1 µM	6.7 µM	15.3 µM	5.1 µM	95%	43%	58%	< 20%	< 20%	43%	95%	< 20%	< 20%	< 20%	< 20%	< 20%	< 20%	< 20%	–
O=C1CC(C(F)(F)F)Cc2nc3ccc(Br)cc3c(-c3ccccc3F)c21 (configuration not stated)	17.4 µM	23.3 µM	15.5 µM	11.6 µM	< 20%	< 20%	48%	< 20%	35%	< 20%	< 20%	29%	45%	62%	< 20%	< 20%	< 20%	< 20%	28%
O=C1CC(C(F)(F)F)Cc2nc3ccccc3c(-c3ccccc3)c21 (configuration not stated)	–	–	–	–	< 20%	< 20%	70%	< 20%	70%	< 20%	< 20%	45%	< 20%	< 20%	77%	< 20%	< 20%	< 20%	< 20%
